Source: patent US5712282A, “Method for therapeutically treating tardive dyskinesia and uses thereof” (Iyo; Masaomi, priority 1994, dated 1998)

Legend:
SD-strain rats [1] = test: Test Example 2: oral dyskinesia induced by haloperidol decanoate (25 mg/kg i.m. every 4 weeks, 24 weeks) in rats; type: in vivo, SD-strain rats (male); settings: for Number of the tongue protrusions / Number of the chewings: 15 min observation from 15 min after dosing, Mean±SE; for Number of the tongue protrusions: control 17.2 ± 5.5; for Number of the chewings: control 213.3 ± 50.5; for suppression of oral dyskinesia: haloperidol decanoate-induced, rats, i.p.
Description: Haloperidol decanoate was intramuscularly injected in the femoral region of each rat of SD-strain rats (male, 6 rats per group) at a dose of 25 mg/kg once for every 4 weeks during the total period of 24 weeks.
To the control group of rats was intraperitoneally administered only the physiological saline containing 10% Cremophor.
The numbers of the vacuous chewing movements and the abnormal tongue-protruding movements appearing during the 15 min. period of the observation were counted as indices of oral dyskinesia in the rats.
Values of Mean±Standard error of the numbers of the abnormal movements as observed were calculated, and the results obtained are shown in Table 3 below.

patients = settings: long-term administration; cited from earlier work
acute toxicity in rats = settings: rat, in vivo
SD-strain rats [2] = test: Test Example 1: tardive dyskinesia induced by haloperidol (1.5 mg/kg i.p. daily, 3 weeks) in rats; type: in vivo, SD-strain rats (male); settings: for Number of the tongue protrusions / Number of the chewings: 15 min observation from 3 min after dosing, Mean±SE; for Number of the tongue protrusions: control 7.7 ± 2.1; for Number of the chewings: control 111.2 ± 27.8
Description: After lapse of 96 hours from the completion of the last administration of haloperidol, the number of the vacuous chewing movements of the mouth and the number of abnormal tongue-protruding movements of the rats were counted as the parameters indicative of tardive dyskinesia.

cAMP in the brain = settings: rats; animal tests, J. Med. Chem. 34(1), 291-293 (1991); cited from earlier work
phosphodiesterase I = settings: Type of PDE inhibited: I; in vitro; cited from earlier work
phosphodiesterase I ~ V = settings: Type of PDE inhibited: I ~ V; in vitro; cited from earlier work
phosphodiesterase IV = settings: Type of PDE inhibited: IV; in vitro; cited from earlier work
SD-strain rats [3] = test: Test Example 3: oral dyskinesia induced by haloperidol (1.5 mg/kg i.p. daily, 5 weeks) in rats; type: in vivo, SD-strain rats (female)
Description: Haloperidol in the form of a suspension of haloperidol in 0.5% aqueous carboxymethylcellulose was intraperitoneally administrated at a dose of 1.5 mg/kg to each rat of SD-strain rats (female, 7 to 8 rats per group) once a day for consecutive five weeks.
Ro 20-1724 was formulated into the form of a suspension in which said compound was partially dissolved and partially dispersed in a physiological saline containing 10% Cremophor. On the next day of the final administration of haloperidol, Ro 20-1724 as the suspension was intraperitoneally administered at a dose of 3 mg/kg, […] or 30 mg/kg in the rats under test. To the control group of rats was administered only the physiological saline containing 10% Cremophor.
The numbers of the vacuous chewing movements and the abnormal tongue-protruding movements appearing during the 15 min. period of the observation were counted as the indices of oral dyskinesia in the rats. The net observation time was calculated by substracting from the total observation time of 15 minutes the amount of time which the rat spent in exploration or grooming. The indices of the oral dyskinesia were expressed as the number of occurrence of the abnormal movements observed in one minute of the net observation time.

## CC(C)Cn1c(=O)n(C)c(=O)c2[nH]cnc21 [IBMX, 3-isobutyl-1-methylxanthine]
SD-strain rats [1]; 2.0 mg/kg i.p.
  Number of the tongue protrusions: 4.8 ± 1.8
  Number of the chewings: 135.3 ± 45.0
SD-strain rats [1]
  suppression of oral dyskinesia: had a tendency to suppress the above-mentioned oral dyskinesia

## O=C(CCCN1CCC(O)(c2ccc(Cl)cc2)CC1)c1ccc(F)cc1 [haloperidol]
patients
  adverse reaction: induction of tardive dyskinesia

## COc1ccc(C2CNC(=O)C2)cc1OC1CCCC1 (racemic) [Rolipram, (±)-4-[3-(cyclopentyloxy)-4-methoxyphenyl]-2-pyrrolidinone]
Acute toxicity in rats; ip, intraperitoneal
  LD50: ~500 mg/kg
Acute toxicity in rats; oral
  LD50: ~1200 mg/kg
SD-strain rats [2]; 0.5 mg/kg i.p.
  Number of the tongue protrusions: 2.7 ± 1.7
  Number of the chewings: 32.2 ± 14.5
SD-strain rats [2]; 1.0 mg/kg i.p.
  Number of the tongue protrusions: 1.5 ± 1.5
  Number of the chewings: 8.8 ± 4.0
SD-strain rats [2]; haloperidol-induced rat model, i.p. 0.5 and 1.0 mg/kg
  therapeutic effect on symptoms of tardive dyskinesia: suppresses in a dose-dependent manner the symptoms of tardive dyskinesia
SD-strain rats [1]; 0.1 mg/kg i.p.
  Number of the tongue protrusions: 6.0 ± 2.2
  Number of the chewings: 138.0 ± 38.1
SD-strain rats [1]; 0.5 mg/kg i.p.
  Number of the tongue protrusions: 1.7 ± 1.1
  Number of the chewings: 33.8 ± 13.8
SD-strain rats [1]; 1.0 mg/kg i.p.
  Number of the tongue protrusions: 1.3 ± 1.1
  Number of the chewings: 42.0 ± 9.5
SD-strain rats [1]
  suppression of oral dyskinesia: suppress in a dose-dependent manner the oral dyskinesia
cAMP in the brain
  concentration of cAMP in the brain: can increase the concentration of cAMP in the brain of rats

## CCOC(=O)C1=C[C@]2(CC)CCCN3CCc4c(n1c1ccccc41)[C@@H]32 [Vinpocetine, eburnamenine 14-carboxylic acid ethyl ester]
Phosphodiesterase I
  IC50: 20 µM

## Cn1c(=O)c2[nH]cnc2n(C)c1=O [Theophylline, 3,7-dihydro-1,3-dimethyl-1H-purine-2,6-dione]
Phosphodiesterase I ~ V
  IC50: ~200 µM

## CCCCn1c(=O)c2c(ncn2CC(C)=O)n(CCCC)c1=O [Denbufylline, 7-(2-oxopropyl)-1,3-di-n-butylxanthine]
Phosphodiesterase IV
  IC50: 0.3 µM

## CCCCOc1cc(CC2CNC(=O)N2)ccc1OC (centres unmarked) [Ro 20-1724]
SD-strain rats [3]; 3 mg/kg i.p., number in one minute of net observation time, Mean±SE, n = 8, control 1.90 ± 0.87
  Number of the tongue protrusions: 0.46 ± 0.17
SD-strain rats [3]; 3 mg/kg i.p., number in one minute of net observation time, Mean±SE, n = 8, control 16.2 ± 2.4
  Number of the chewings: 11.7 ± 2.1
SD-strain rats [3]; haloperidol-induced, rats, i.p. 3, 10, 30 mg/kg
  suppression of oral dyskinesia: suppressed in a dose dependent manner the oral dyskinesia
Phosphodiesterase IV
  IC50: 2 µM
